Measurements reported in DBAASP.
Converted amounts (≈) assume the structure as drawn.

Columns and labels:
Experiment in all cases: ≥ marks a high value that may be exact or a test limit, other limits are often not marked, values filed in µg/mL are converted to µM
[1] = test system: Corynebacterium xerosis C875
Escherichia coli DC2 = test system: Escherichia coli DC2
Escherichia coli UB1005 = test system: Escherichia coli UB1005
[2] = test system: Staphylococcus epidermidis C621
[3] = test system: Escherichia coli K12 MG1655
Acinetobacter baumannii = test system: Acinetobacter baumannii
Enterococcus faecium = test system: Enterococcus faecium
[4] = test system: Escherichia coli ATCC 25922
Klebsiella pneumoniae = test system: Klebsiella pneumoniae
Pseudomonas aeruginosa = test system: Pseudomonas aeruginosa
[5] = test system: Staphylococcus aureus ATCC 43300
Streptococcus pneumoniae = test system: Streptococcus pneumoniae
[6] = test system: Pseudomonas aeruginosa PAO1
[7] = test system: Salmonella enterica serovar Typhimurium
[8] = test system: Staphylococcus aureus ATCC 25923
[9] = test system: Pseudomonas aeruginosa ATCC 27853

## C[C@H](NC(=O)[C@H](C)NC(=O)[C@H](C)NC(=O)[C@H](CCCN=C(N)N)NC(=O)[C@H](C)NC(=O)[C@H](C)NC(=O)[C@H](C)NC(=O)[C@H](CCCCN)NC(=O)[C@@H](N)CCCCN)C(=O)N[C@@H](C)C(=O)N[C@@H](C)C(=O)N[C@@H](CCCN=C(N)N)C(=O)N[C@@H](C)C(=O)N[C@@H](C)C(=O)N[C@@H](Cc1c[nH]c2ccccc12)C(=O)N[C@@H](C)C(=O)N[C@@H](C)C(=O)N[C@@H](CCCN=C(N)N)C(=O)N[C@@H](C)C(=O)N[C@@H](C)C(=O)N[C@@H](C)C(=O)N[C@@H](CCCCN)C(=O)N[C@@H](CCCCN)C(=O)N[C@@H](CCCCN)C(=O)N[C@@H](CCCCN)C(N)=O [KKAAARAAAAARAAWAARAAAKKKK]
[1]
  MIC: 8 µM (≈ 20.1 µg/mL)
Escherichia coli DC2
  MIC: ≥ 32 µM
Escherichia coli UB1005
  MIC: ≥ 64 µM
[2]
  MIC: ≥ 64 µM

## CC[C@H](C)[C@H](NC(=O)[C@H](CC(=O)O)NC(=O)[C@H](Cc1c[nH]c2ccccc12)NC(=O)[C@H](CO)NC(=O)[C@H](CCCN=C(N)N)NC(=O)[C@@H](N)CCCCN)C(=O)N[C@H](C(=O)N[C@@H](CCCCN)C(=O)N[C@@H](CCCCN)C(=O)N[C@@H](Cc1ccc(O)cc1)C(=O)N[C@H](C(=O)NCC(=O)N[C@H](C(=O)N[C@H](C(=O)N[C@H](C(=O)NCC(=O)N[C@H](C(=O)N[C@H](C(=O)N[C@@H](Cc1cnc[nH]1)C(=O)O)[C@@H](C)CC)[C@@H](C)O)C(C)C)C(C)C)C(C)C)C(C)C)C(C)C [KRSWDIVKKYVGVVVGTIH]
[3]
  MIC: ≥ 58.6 µM

## CC[C@H](C)[C@H](NC(=O)CNC(=O)[C@H](Cc1cnc[nH]1)NC(=O)CNC(=O)CN)C(=O)N[C@@H](CCCN=C(N)N)C(=O)N[C@@H](CCCN=C(N)N)C(=O)N[C@H](C(=O)N[C@H](C(=O)N[C@@H](CCCN=C(N)N)C(=O)N[C@@H](CCCCN)C(=O)N[C@H](C(=O)N[C@H](C(=O)N[C@@H](Cc1cnc[nH]1)C(=O)N[C@H](C(=O)N[C@H](C(=O)N[C@@H](CCCCN)C(=O)N[C@@H](CCCCN)C(N)=O)[C@@H](C)CC)[C@@H](C)CC)[C@@H](C)CC)[C@@H](C)CC)[C@@H](C)CC)[C@@H](C)CC [GGHGIRRIIRKIIHIIKK]
Acinetobacter baumannii
  MIC: 2.7 µM (≈ 5.69 µg/mL)
Enterococcus faecium
  MIC: 16 µM (≈ 33.7 µg/mL)
[4]
  MIC: > 16 µM
Klebsiella pneumoniae
  MIC: 16 µM (≈ 33.7 µg/mL)
Pseudomonas aeruginosa
  MIC: > 16 µM
[5]
  MIC: 16 µM (≈ 33.7 µg/mL)
Streptococcus pneumoniae
  MIC: 16 µM (≈ 33.7 µg/mL)

## C[C@H](NC(=O)[C@H](C)NC(=O)[C@H](C)NC(=O)[C@H](C)NC(=O)[C@H](C)NC(=O)[C@H](C)NC(=O)[C@H](C)NC(=O)[C@H](CCCCN)NC(=O)[C@@H](N)CCCCN)C(=O)N[C@@H](C)C(=O)N[C@@H](C)C(=O)N[C@@H](C)C(=O)N[C@@H](C)C(=O)N[C@@H](C)C(=O)N[C@@H](Cc1c[nH]c2ccccc12)C(=O)N[C@@H](C)C(=O)N[C@@H](C)C(=O)N[C@@H](C)C(=O)N[C@@H](C)C(=O)N[C@@H](C)C(=O)N[C@@H](C)C(=O)N[C@@H](CCCCN)C(=O)N[C@@H](CCCCN)C(=O)N[C@@H](CCCCN)C(=O)N[C@@H](CCCCN)C(N)=O [KKAAAAAAAAAAAAWAAAAAAKKKK]
[1]
  MIC: 2 µM (≈ 4.5 µg/mL)
Escherichia coli DC2
  MIC: ≥ 64 µM
Escherichia coli UB1005
  MIC: ≥ 64 µM
[2]
  MIC: ≥ 64 µM

## C[C@H](NC(=O)[C@H](C)NC(=O)[C@H](C)NC(=O)[C@H](CO)NC(=O)[C@H](C)NC(=O)[C@H](C)NC(=O)[C@H](C)NC(=O)[C@H](CCCCN)NC(=O)[C@@H](N)CCCCN)C(=O)N[C@@H](C)C(=O)N[C@@H](C)C(=O)N[C@@H](CO)C(=O)N[C@@H](C)C(=O)N[C@@H](C)C(=O)N[C@@H](Cc1c[nH]c2ccccc12)C(=O)N[C@@H](C)C(=O)N[C@@H](C)C(=O)N[C@@H](CO)C(=O)N[C@@H](C)C(=O)N[C@@H](C)C(=O)N[C@@H](C)C(=O)N[C@@H](CCCCN)C(=O)N[C@@H](CCCCN)C(=O)N[C@@H](CCCCN)C(=O)N[C@@H](CCCCN)C(N)=O [KKAAASAAAAASAAWAASAAAKKKK]
[1]
  MIC: ≥ 64 µM
Escherichia coli DC2
  MIC: ≥ 64 µM
Escherichia coli UB1005
  MIC: ≥ 64 µM
[2]
  MIC: ≥ 64 µM

## CC[C@H](C)[C@H](NC(=O)[C@H](CCCN=C(N)N)NC(=O)[C@H](Cc1c[nH]c2ccccc12)NC(=O)[C@H](CCC(N)=O)NC(=O)[C@@H](N)CCCCN)C(=O)N[C@@H](CCCN=C(N)N)C(=O)N[C@H](C(=O)N[C@@H](CS)C(=O)N[C@H](C(=O)N[C@H](C(=O)N[C@@H](CCCN=C(N)N)C(=O)N[C@@H](C)C(=O)O)[C@@H](C)CC)C(C)C)C(C)C [KQWRIRVCVIRA]
[4]
  MIC: 20.9 µM (≈ 32 µg/mL)
[6]
  MIC: 41.9 µM (≈ 64 µg/mL)
[7]
  MIC: 20.9 µM (≈ 32 µg/mL)
[8]
  MIC: 20.9 µM (≈ 32 µg/mL)

## CC[C@H](C)[C@H](NC(=O)[C@H](CCCN=C(N)N)NC(=O)[C@@H](NC(=O)[C@H](CCCN=C(N)N)NC(=O)[C@H](Cc1c[nH]c2ccccc12)NC(=O)[C@H](CCC(N)=O)NC(=O)[C@@H](N)C(C)C)[C@@H](C)CC)C(=O)N[C@@H](C)C(=O)N[C@H](C(=O)N[C@H](C(=O)N[C@@H](CCCN=C(N)N)C(=O)N[C@@H](CCCCN)C(=O)O)[C@@H](C)CC)C(C)C [VQWRIRIAVIRK]
[4]
  MIC: 10.4 µM (≈ 16 µg/mL)
[6]
  MIC: 20.8 µM (≈ 32 µg/mL)
[7]
  MIC: 10.4 µM (≈ 16 µg/mL)
[8]
  MIC: 10.4 µM (≈ 16 µg/mL)

## CC(C)[C@H](NC(=O)[C@H](C)NC(=O)[C@H](C)NC(=O)[C@H](C)NC(=O)[C@H](CCCCN)NC(=O)[C@@H](N)CCCCN)C(=O)N[C@@H](C)C(=O)N[C@@H](C)C(=O)N[C@@H](C)C(=O)N[C@@H](C)C(=O)N[C@@H](C)C(=O)N[C@H](C(=O)N[C@@H](C)C(=O)N[C@@H](C)C(=O)N[C@@H](Cc1c[nH]c2ccccc12)C(=O)N[C@@H](C)C(=O)N[C@@H](C)C(=O)N[C@H](C(=O)N[C@@H](C)C(=O)N[C@@H](C)C(=O)N[C@@H](C)C(=O)N[C@@H](CCCCN)C(=O)N[C@@H](CCCCN)C(=O)N[C@@H](CCCCN)C(=O)N[C@@H](CCCCN)C(N)=O)C(C)C)C(C)C [KKAAAVAAAAAVAAWAAVAAAKKKK]
[1]
  MIC: 0.5 µM (≈ 1.17 µg/mL)
Escherichia coli DC2
  MIC: ≥ 32 µM
Escherichia coli UB1005
  MIC: ≥ 32 µM
[2]
  MIC: ≥ 32 µM

## C[C@H](NC(=O)[C@H](C)NC(=O)[C@H](Cc1ccccc1)NC(=O)[C@H](C)NC(=O)[C@H](C)NC(=O)[C@H](Cc1c[nH]c2ccccc12)NC(=O)[C@H](C)NC(=O)[C@H](C)NC(=O)[C@H](Cc1ccccc1)NC(=O)[C@H](C)NC(=O)[C@H](C)NC(=O)[C@H](CCCN=C(N)N)NC(=O)[C@H](CCCN=C(N)N)NC(=O)[C@H](CCCN=C(N)N)NC(=O)[C@H](CCCN=C(N)N)NC(=O)[C@H](CCCN=C(N)N)NC(=O)[C@@H](N)CCCN=C(N)N)C(N)=O [RRRRRRAAFAAWAAFAA]
[1]
  MIC: 0.5 µM (≈ 1 µg/mL)
[4]
  MIC: 4 µM (≈ 8.01 µg/mL)
Escherichia coli DC2
  MIC: 0.5 µM (≈ 1 µg/mL)
Escherichia coli UB1005
  MIC: 1 µM (≈ 2 µg/mL)
[9]
  MIC: 8 µM (≈ 16 µg/mL)
[2]
  MIC: 4 µM (≈ 8.01 µg/mL)
